Patent US8309515B2, “Poly(ethylene oxide)-block-poly(ester) block copolymers” (priority 2006, dated 2012)

Legend:
[1] = tested on: B16-BL6 mouse melanoma cells; test: In vitro cytotoxicity, MTT assay; type: cell-based
Protocol: In vitro cytotoxicity activity of PEO-b-P(CL-DOX) and DOX loaded PEO-b-P(CL-DOX) block copolymer micelles were investigated against B16-BL6 mouse melanoma cells using MTT assay. […] After this time, MTT solution (20 μL; 5 mg/ml in sterile-filtered PBS) was added to each well and the plates were reincubated for a further 3 h. The formazan crystals were dissolved in DMSO, and the concentration was read by a Power Wave×340 microplate reader (Bio-Tek Instruments, Inc. USA) at 550 nm.

rat red blood cells = test: In vitro hemolysis against rat red blood cells; settings: 0.1% triton-X 100, positive control
Protocol: Blood was freshly obtained from a Sprague-Dawley rat by cardiac puncture, mixed with sterile isotonic PBS and centrifuged at 3,000 rpm for 5 minutes. The supernatant were pipetted out and the red blood cells were diluted with isotonic sterile PBS (pH: 7.4). The proper dilution factor was estimated from the UV-Vis absorbance of hemoglobin at 576 nm in the supernatant after RBCs were lysed by 0.1% triton X 100. A properly diluted sample of RBCs gave an absorbance of 0.4 to 0.5. […] After incubation the samples were kept in ice bath to stop further hemolysis. The samples were centrifuged at 14,000 rpm for 30 sec to precipitate the intact RBC cells. The supernatant was separated and analyzed for hemoglobin by UV-Vis spectrophotometer at 576 nm. The percentage of hemolyzed RBC was calculated using the equation: % of hemolysis=100 (Abs−Abs0)/(Abs100-Abs0), where Abs, Abs0 and Abs100 are the absorbance for the sample, control with no polymer or DOX and control with 0.1% triton X 100, respectively.

Row | Compound | times lower IC50 / higher cytotoxicity than PEO-b-P(CL-DOX) micelles ([1]; 24 h incubation) [times] | times lower IC50 than PEO-b-P(CL-DOX) micelles ([1]; 48 h incubation) [times] | hemolysis (rat red blood cells) [%]
1 | COc1cccc2c1C(=O)c1c(O)c3c(c(O)c1C2=O)C[C@@](O)(C(=O)CO)C[C@@H]3O[C@H]1C[C@H](N)[C@H](O)[C@H](C)O1 [free DOX, doxorubicin] | 50 | 15 | 
2 | triton-X 100 |  |  | 100
